ChEMBL document CHEMBL3046916, “ROLE OF INTERMEDIARY BIOMARKERS IN DETERMINING THE ANTICANCER EFFICACY OF MARINE COMPOUNDS” (2004)
Calls of active or inactive are those of the source. No cut-off for these calls is given here.

What was measured:
Type in all cases: functional
MCF7 [1] = assay: Decrease of p21 protein expression in Homo sapiens (human) MCF7 cells at 50 uM followed by irradiated with UV after 4 hr by Western blot analysis relative to control; design: scale not given: the % may be the effect or the level left
MCF7 [2] = assay: Decrease of p53 protein expression in Homo sapiens (human) MCF7 cells at 50 uM followed by irradiated with UV after 4 hr by Western blot analysis relative to control; design: scale not given: the % may be the effect or the level left
MCF7 [3] = assay: Inhibition of residual DNA repair ability in Homo sapiens (human) MCF7 cells assessed as plaque forming unit at 50 uM followed by irradiated with 50 Jm'-2 of UV after 24 hr by host cell reactivation assay relative to control
MCF7 [4] = assay: Increase of benzo[alpha]pyrene-DNA adduct formation in Homo sapiens (human) MCF7 cells at 50 uM treated for 24 hr before benzo[alpha]pyrene addition measured after 24 hr by 32P-postlabeling technique relative to control
MCF7 [5] = assay: Inhibition of residual DNA repair ability in Homo sapiens (human) MCF7 cells assessed as plaque forming unit at 50 uM followed by irradiated with 200 Jm'-2 of UV after 24 hr by host cell reactivation assay relative to control
MCF7 [6] = assay: Inhibition of residual DNA repair ability in Homo sapiens (human) MCF7 cells assessed as plaque forming unit at 50 uM followed by irradiated with 100 Jm'-2 of UV after 24 hr by host cell reactivation assay relative to control
MCF7 [7] = assay: Decrease of p16 protein expression in Homo sapiens (human) MCF7 cells at 50 uM followed by irradiated with UV after 4 hr by Western blot analysis relative to control; design: scale not given: the % may be the effect or the level left
MCF7 [8] = assay: Increase of benzo[alpha]pyrene-DNA adduct formation in Homo sapiens (human) MCF7 cells at 100 uM treated for 24 hr before benzo[alpha]pyrene addition measured after 24 hr by 32P-postlabeling technique relative to control

Question: How did the Activity (MCF7 [1]) turn out when `O[C@]12C=C(c3nccc4c3[nH]c3ccccc34)[C@@H]3CCN(CCCC/C=C\CC1)C[C@@]31C[C@@H]3/C=C\CCCCN3[C@H]12` [MANZAMINE A] was run?
Answer: Its Activity is 80%.

Question: And the Activity (MCF7 [2])?
Answer: Its Activity is 63%.

Question: What about the “%PFU” value (MCF7 [3]) of the same compound?
Answer: Its value is 46%.

Question: And the “fold change (FC)” value (MCF7 [4])?
Answer: Its value is 2.

Question: What about the “%PFU” value (MCF7 [5]) of the same compound?
Answer: Its value is 9%.

Question: And the “%PFU” value (MCF7 [6])?
Answer: Its value is 15%.

Question: What about the Activity (MCF7 [7]) of the same compound?
Answer: Its Activity is 89%.

Question: Which results are given for `CC1=C2CC/C(C)=C/CC[C@]3(C)O[C@H]3CC/C(C)=C/[C@@H]2OC1=O` [SARCOPHINE]?
Answer: Activity (MCF7 [1]): 120%; Activity (MCF7 [2]): 90%; %PFU (MCF7 [3]): 69%; Activity (MCF7 [4]): inactive; %PFU (MCF7 [5]): 24%; %PFU (MCF7 [6]): 38%; Activity (MCF7 [7]): 96%; fold change (FC) (MCF7 [8]): 2
